Experimental data from patent US7199151B2 (priority 1996, dated 2007).

Experiments:
Assay type in all cases: cell-based
[1] = system: non-small cell lung cancer lines H522 and H460
Method: (§1) Conjugates 1 and 2 were sent to the United States National Cancer Institute (NCI) for screening in the NCI's anticancer screening program. The conjugates were provided in ethanol (approximately 40 mg analog/2 ml ethanol). […] Instructions were provided to store at 4° C. and to open the vials only when ready for immediate experimental use. Instructions also were provided to use the ethanol solutions containing the conjugates directly or to dissolve the analogs further in DMSO (dimethylsulfoxide) at appropriate concentrations, with vortexing if necessary for adequate dispersal.
(§2) The activities of conjugates 1 and 2 were tested against 57 cancer cell lines. […] To understand the data, reference is made to the guides provided by the NCI, excerpted as follows:
(§3) The Calculated Measurement of Effect: Percentage Growth (PG)
(§4) The measured effect of the compound on a cell line is currently calculated according to one or the other of the following two expressions: If (Mean ODtest−Mean ODtzero)≧0, then PG=100×(Mean ODtest−Mean ODtzero)/(Mean ODctrl−Mean Odtzero) If (Mean ODtest−Mean ODtzero)<0, then PG=100×(Mean ODtest−Mean Odtzero)/Mean Odtzero Where: • Mean ODtzero=The average of optical density measurements of SRB-derived color just before exposure of cells to the test compound. • Mean ODtest=The average of optical density measurements of SRB-derived color after 48 hours exposure of cells to the test compound. • Mean ODctrl=The average of optical density measurements of SRB-derived color after 48 hours with no exposure of cells to the test compound. • Experimental data was collected against each cell line . . . Each concentration is expressed as the log10 (molar or μg/ml) . . . The response parameters GI50, TGI, and LC50 are interpolated values representing the concentrations at which the PG is +50, 0, and −50, respectively. Sometimes these response parameters cannot be obtained by interpolation. If, for instance, all of the PGs in a given row exceed +50, then none of the three parameters can be obtained by interpolation. In such a case, the value given for each response parameter is the highest concentration tested . . . This practice is extended similarly to the other possible situations where a response parameter cannot be obtained by interpolation.
(§5) Dose-Response Curves: • The dose-response curve page of the data package is created by plotting the PGs against the log10 of the corresponding concentration for every cell line. The cell line curves are grouped by subpanel. Horizontal lines are provided at the PG values of +50, 0, and −50. The concentrations corresponding to points where the curves cross these lines are the GI50, TGI and LC50, respectively.

[2] = system: leukemia cancer cell lines; details: six leukemia lines for the conjugates, four for Taxol; FIGS. 1, 10 and 19
Method: as §1, §2, §3, §4, §5

[3] = system: 57 cancer cell lines; details: average over all cell lines; −10 used where Taxol was active at −10.0 (27 instances)
Method: as §1, §2, §3, §4, §5

[4] = system: MDA-N and MDA-MB-435 breast cancer cell lines; details: at all concentrations tested
Method: as §1, §2, §3, §4, §5

[5] = system: CNSU251
Method: as §1, §2, §3, §4, §5

[6] = system: CNSSF 268; test: cells; details: concentration at which PG is +50, 48 hours exposure, SRB
Method: as §1, §2, §3
as §4, with “In such a case, the value given for each response parameter is the highest concentration tested . . . This practice is extended similarly to the other possible situations where a response parameter cannot be obtained by interpolation.” left out

[7] = system: CNS SF-539; test: cells; details: 48 hours exposure, SRB
Method: as §1, §2, §3
as §4, with “In such a case, the value given for each response parameter is the highest concentration tested . . . This practice is extended similarly to the other possible situations where a response parameter cannot be obtained by interpolation.” left out

Compound: CC(=O)O[C@H]1C(=O)[C@@]2(C)[C@H]([C@H](OC(=O)c3ccccc3)[C@]3(O)C[C@H](OC(=O)[C@H](O)[C@@H](NC(=O)c4ccccc4)c4ccccc4)C(C)=C1C3(C)C)[C@]1(OC(C)=O)CO[C@@H]1C[C@@H]2O [Taxol, paclitaxel]
- difference in effectiveness at TGI, H522 versus H460 [1]: about 3 logs
- relative effectiveness at TGI, H522 versus H460 [1]: more effective against non-small cell lung cancer line H522 than against H460
- effectiveness against leukemia cancer cell lines [2]: somewhat effective
- average GI50 across all cell lines tested [3]: −9.19 log10 (molar or μg/ml)
- relative activity toward MDA-N versus MDA-MB-435 [4]: equivalent in activity
- effectiveness at TGI against CNSU251 relative to other CNS cell lines [5]: least effective
- GI50 [6]: < 0.1 nM
- GI50 ([7]; CNSSF-539, concentration at which PG is +50, CNS SF 539): 30.2 nM
- TGI ([7]; concentration at which PG is 0, CNS SF-539): −6.95 log10 (molar or μg/ml)
